Data set [1] deals with ER+ breast cancer cell lines (MCF-7, ZR-75 and T-47D). In words: Cell Titer-Glo dose dependent viability assay, ER+ breast cancer cell lines. In kind it is cell-based. The method, then:
(§1) To measure the effects of TC-E 5008 on cell viability, breast cancer cells were seeded in 96-well plates (4×10^3 cells/well) in RPMI medium containing 10% fetal bovine serum. After an overnight incubation, cells were treated with varying concentrations of TC-E 5008 or other mutant IDH1 inhibitors for 72 hours. Viability was measured using Cell Titer-Glo Luminescent Cell Viability Assay (Promega) in 96-well, flat, clear-bottom, opaque-wall micro plates according to manufacturer's protocol. IC50 was less than […] in ER+ breast cancer cell lines and greater than […] in ER− breast cancer cell lines, as shown in the Figures.
(§2) A compound having a structure in accordance with Formula II (sometimes referred to herein as “TC-E 5008”) was selected for validation with an integrated confidence score of 1362.6. Three commonly used ER-positive breast cancer cell lines MCF-7, ZR-75 and T-47D were used for in vitro validation.
A general note: ATP-based viability assays read luminescence as a measure of living cells.

Data set [2] has as its system ER− breast cancer cell lines (triple negative breast cancer cell line). As to the kind of experiment: Cell Titer-Glo dose dependent viability assay, ER- breast cancer cell lines. The data set is classed as cell-based. The method, then:
as §1, §2

Data set [3] has as its system ER-positive breast tumors samples. As to the kind of experiment: Patient-derived explant (PDE) ex vivo culture of primary breast tumors, Ki-67 staining. The data set is classed as cell-based, human. The method, then: Excised tissue samples were processed and cultured ex vivo. De-identified tumors were obtained from the University of Texas Southwest Tissue Repository after institutional review board approval. Briefly, tumor samples were incubated on gelatin sponges for 24 hours in culture medium containing 10% fetal bovine serum (hereafter “FBS”), followed by treatment with either vehicle, 10 μM TC-E 5008 for 72 hours. Representative tissues were fixed in 10% formalin at 4° C. overnight and subsequently processed into paraffin blocks. The sections were then processed for immunohistochemical analysis.
In order to further validate TC-E 5008, an ex vivo culture model of primary breast tumors was used—which allows for the validation of drugs on breast tumors in their native tissue architecture. Specifically, surgically resected breast tissues were sliced into small pieces and grown ex vivo for short term on a gelatin sponge in the absence or presence of desired compound (see FIG. 4). In order to test TC-E 5008 in a variety of ER-positive tumors, estrogen receptor positivity was the only inclusion criteria used for the breast tumor samples.

The mark [4] stands for this setting: ER-positive tumor explants, 10 μM, 72 hours.
[5] abbreviates: ER-positive tumor explants, 10 μM, 72 hours, versus untreated controls.

One may read the IC50 as the midpoint of a concentration-inhibition curve. High values mean weaker potency in that assay, low ones greater potency in that assay.

Entries after “also recorded” stand apart in the source; their conditions may differ. Where only a bound is given, the exact number is not on record here.

With `Cc1cc(Cc2ccccc2)n(O)c(=O)c1` [TC-E 5008], the IC50 in data set [1] (ER+ breast cancer cell lines, 72 hours, Cell Titer-Glo) is below 2 µM. The “anti-proliferative activity / proliferation” value in data set [1] (ER-positive lines MCF-7, ZR-75 and T-47D, FIG. 1, 8, 9) is given as “anti-proliferative activity; also recorded: blocked proliferation of all three ER-positive breast cancer cell lines”. In data set [2] (ER− breast cancer cell lines, 72 hours, Cell Titer-Glo), this molecule returned an IC50 above 10 µM. Besides, the activity on proliferation result in data set [2] (triple negative breast cancer cell line, FIG. 2) was “showed less activity”. Besides, in data set [3] (setting [4]), the “patients showing a reduction in Ki-67 staining (Partial responders)” value is recorded as 3/10, the “patients showing a significant reduction (Complete responders)” value is reported as 4/10 and the “patients with decreased proliferation (Ki-67 staining)” value is 7/10. Also, in data set [3] (setting [5]), the “reduction in Ki-67 staining, Complete responders” value is recorded as 40-95% and the “reduction in Ki-67 staining, Partial responders” value is listed as 0-25%. The “tumor tissues showing an increase in proliferation (Non-responders)” value in data set [3] (compared to untreated controls, FIG. 7) is reported as “Three”. In addition, the response rate in data set [3] (limited cohort of 10 ER-positive tumors) is on record as 40%. In addition, in data set [3] (primary tumor explants cultured ex vivo, 10 μM, 72 hour), the proliferative indices entry is given as “significant decrease in proliferative indices”. The “morphological changes in the patient tissues” value in data set [3] (treated tissues compared to controls) was “did not observe morphological changes”.

The values above are taken from patent US20230406825A1, “COMPOUNDS, COMPOSITIONS THEREOF, AND METHODS FOR TREATING ER+ BREAST CANCER” (The Board of Regents of The University of Texas System, priority 2020, published 2023).
